In patent publication US20230407243A1, “GENETIC PLATFORM TO INVESTIGATE THE FUNCTIONS OF BACTERIAL DRUG EFFLUX PUMPS” (priority 2022, published 2023):

Experiments:
Type in all cases: cell-based, Escherichia coli
[1] = test system: EKO-35 araC::acrBD408A; assay: MIC susceptibility profiling, efflux platform; settings: for Fold change of MICs: EKO-35 araC::acrBD408A compared to EKO-35; for Minimum Inhibitory Concentration, EKO-35 araC::acrBD408A: Table 13B, non-porinated, technical duplicate
Outline: (§1)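 Broth MIC in cation-adjusted Mueller-Hinton (MHB II) following twofold compound titration in duplicate. Bacteria were prepared at OD600 ~1.0 in PBS and diluted 1/2000. Endpoint OD600 after 18 h at 37 °C was corrected using the pre-incubation reading.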

[2] = test system: EKO-35 araC::acrD; assay: MIC susceptibility profiling, efflux platform; settings: for Fold change of MICs: EKO-35 araC::acrD compared to EKO-35; for Minimum Inhibitory Concentration, EKO-35 araC::acrD: Table 13A, non-porinated, technical duplicate
Outline: as §1

[3] = test system: EKO-35 araC::acrEF; assay: MIC susceptibility profiling, efflux platform; settings: for Fold change of MICs: EKO-35 araC::acrEF compared to EKO-35; for Minimum Inhibitory Concentration, EKO-35 araC::acrEF: Table 13A, non-porinated, technical duplicate
Outline: as §1

[4] = test system: EKO-35 araC::emrAB; assay: MIC susceptibility profiling, efflux platform; settings: for Fold change of MICs: EKO-35 araC::emrAB compared to EKO-35; for Minimum Inhibitory Concentration, EKO-35 araC::emrAB: Table 13B, non-porinated, technical duplicate
Outline: as §1

[5] = test system: EKO-35 araC::emrKY; assay: MIC susceptibility profiling, efflux platform; settings: for Fold change of MICs: EKO-35 araC::emrKY compared to EKO-35; for Minimum Inhibitory Concentration, EKO-35 araC::emrKY: Table 13B, non-porinated, technical duplicate
Outline: as §1

[6] = test system: EKO-35 araC::macAB; assay: MIC susceptibility profiling, efflux platform; settings: for Fold change of MICs: EKO-35 araC::macAB compared to EKO-35; for Minimum Inhibitory Concentration, EKO-35 araC::macAB: Table 13B, non-porinated, technical duplicate
Outline: as §1

[7] = test system: EKO-35 araC::mdtBC; assay: MIC susceptibility profiling, efflux platform; settings: for Fold change of MICs: EKO-35 araC::mdtBC compared to EKO-35; for Minimum Inhibitory Concentration, EKO-35 araC::mdtBC: Table 13B, non-porinated, technical duplicate
Outline: as §1

[8] = test system: EKO-35 araC::mexCD (MexCD from P. aeruginosa); assay: MIC susceptibility profiling, efflux platform; settings: for Fold change of MICs: EKO-35 araC::mexCD compared to EKO-35; for Minimum Inhibitory Concentration, EKO-35 araC::mexCD: Table 13B, non-porinated, technical duplicate
Outline: as §1

[9] = test system: EKO-35 araC::acrB Pore; assay: MIC susceptibility profiling, porinated efflux platform; settings: for Fold changes of MICs: EKO-35 araC::acr-B Pore compared to EKO-35-Pore; for Minimum inhibitory concentration, EKO-35 araC::acrB Pore: Table 14A, porinated, technical duplicate
Outline: (§2)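 MIC values come from background-corrected OD600 readings (pre-incubation OD subtracted) after 18 h at 37 °C and 900 rpm in MHB II. Compounds were tested in duplicate as 2-fold dilutions. The inoculum came from 18 h LB cultures adjusted to OD600 ~1.0 and diluted 1/2000, and the pore-bearing strains were vancomycin-checked beforehand.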

[10] = test system: EKO-35 araC::acrBD408A Pore; assay: as above; settings: for Fold changes of MICs: EKO-35 araC::acrBD408A Pore compared to EKO-35-Pore; for Minimum inhibitory concentration: EKO-35 araC::acrBD408A Pore, technical duplicate
Outline: as §2

[11] = test system: EKO-35 araC::acrD Pore; assay: as above; settings: for Fold changes of MICs: EKO-35 araC::acrD Pore compared to EKO-35-Pore; for Minimum inhibitory concentration, EKO-35 araC::acrD Pore: Table 14A, porinated, technical duplicate
Outline: as §2

[12] = test system: EKO-35 araC::acrEF Pore; assay: as above; settings: for Minimum inhibitory concentration, EKO-35 araC::acrEF Pore: Table 14A, porinated, technical duplicate
Outline: as §2

[13] = test system: EKO-35 araC::emrAB Pore; assay: as above; settings: for Fold changes of MICs: EKO-35 araC::emrAB Pore compared to EKO-35-Pore; for Minimum inhibitory concentration: EKO-35 araC::emrAB Pore, technical duplicate
Outline: as §2

[14] = test system: EKO-35 araC::emrKY Pore; assay: as above; settings: for Fold changes of MICs: EKO-35 araC::emrKY Pore compared to EKO-35-Pore; for Minimum inhibitory concentration: EKO-35 araC::emrKY Pore, technical duplicate
Outline: as §2

[15] = test system: EKO-35 araC::macAB Pore; assay: as above; settings: for Fold changes of MICs: EKO-35 araC::macAB Pore compared to EKO-35-Pore; for Minimum inhibitory concentration: EKO-35 araC::macAB Pore, technical duplicate
Outline: as §2

[16] = test system: EKO-35 araC::mdtBC Pore; assay: as above; settings: for Fold changes of MICs: EKO-35 araC::mdtBC Pore compared to EKO-35-Pore; for Minimum inhibitory concentration: EKO-35 araC::mdtBC Pore, technical duplicate
Outline: as §2

[17] = test system: EKO-35 araC::mdtEF Pore; assay: as above; settings: for Fold changes of MICs: EKO-35 araC::mdtEF Pore compared to EKO-35-Pore; for Minimum inhibitory concentration, EKO-35 araC::mdtEF Pore: Table 14A, porinated, technical duplicate
Outline: as §2

[18] = test system: EKO-35 araC::mexCD Pore; assay: as above; settings: for Fold changes of MICs: EKO-35 araC::mexCD Pore compared to EKO-35-Pore; for Minimum inhibitory concentration: EKO-35 araC::mexCD Pore, technical duplicate
Outline: as §2

O=[N+]([O-])c1ccc2c(c1)C(=NO)c1cc([N+](=O)[O-])ccc1-2 [compound 11]
Fold change of MICs [1]: 1 fold
Minimum Inhibitory Concentration, EKO-35 araC::acrBD408A [1]: 0.078 µg/mL
Fold change of MICs [2]: 8 fold
Minimum Inhibitory Concentration, EKO-35 araC::acrD [2]: 0.625 µg/mL
Fold change of MICs [3]: 4096 fold
Minimum Inhibitory Concentration, EKO-35 araC::acrEF [3]: 320 µg/mL
Fold change of MICs [4]: 512 fold
Minimum Inhibitory Concentration, EKO-35 araC::emrAB [4]: 40 µg/mL
Fold change of MICs [5]: 1 fold
Minimum Inhibitory Concentration, EKO-35 araC::emrKY [5]: 0.078 µg/mL
Fold change of MICs [6]: 1 fold
Minimum Inhibitory Concentration, EKO-35 araC::macAB [6]: 0.078 µg/mL
Fold change of MICs [7]: 1 fold
Minimum Inhibitory Concentration, EKO-35 araC::mdtBC [7]: 0.078 µg/mL
Fold change of MICs [8]: 16 fold
Minimum Inhibitory Concentration, EKO-35 araC::mexCD [8]: 1.25 µg/mL
Fold changes of MICs [9]: 1024 fold
Minimum inhibitory concentration, EKO-35 araC::acrB Pore [9]: 80 µg/mL
Fold changes of MICs [10]: 1 fold
Minimum inhibitory concentration [10]: 0.078 µg/mL
Fold changes of MICs [11]: 4 fold
Minimum inhibitory concentration, EKO-35 araC::acrD Pore [11]: 0.313 µg/mL
Minimum inhibitory concentration, EKO-35 araC::acrEF Pore [12]: 80 µg/mL
Fold changes of MICs [13]: 16 fold
Minimum inhibitory concentration [13]: 1.25 µg/mL
Fold changes of MICs [14]: 1 fold
Minimum inhibitory concentration [14]: 0.078 µg/mL
Fold changes of MICs [15]: 1 fold
Minimum inhibitory concentration [15]: 0.078 µg/mL
Fold changes of MICs [16]: 1 fold
Minimum inhibitory concentration [16]: 0.078 µg/mL
Fold changes of MICs [17]: 64 fold
Minimum inhibitory concentration, EKO-35 araC::mdtEF Pore [17]: 5 µg/mL
Fold changes of MICs [18]: 8 fold
Minimum inhibitory concentration [18]: 0.625 µg/mL

C[C@H](CCC(=O)NCCS(=O)(=O)[O-])[C@H]1CC[C@H]2[C@@H]3CC[C@@H]4C[C@H](O)CC[C@]4(C)[C@H]3C[C@H](O)[C@]12C.[Na+] [sodium taurodeoxycholate]
Fold change of MICs [1]: 2 fold
Minimum Inhibitory Concentration, EKO-35 araC::acrBD408A [1]: 1000 µg/mL
Fold change of MICs [2]: 2 fold
Minimum Inhibitory Concentration, EKO-35 araC::acrD [2]: 1000 µg/mL
Fold change of MICs [3]: 2 fold
Minimum Inhibitory Concentration, EKO-35 araC::acrEF [3]: 1000 µg/mL
Fold change of MICs [4]: 2 fold
Minimum Inhibitory Concentration, EKO-35 araC::emrAB [4]: 1000 µg/mL
Fold change of MICs [5]: 1 fold
Minimum Inhibitory Concentration, EKO-35 araC::emrKY [5]: 500 µg/mL
Fold change of MICs [6]: 1 fold
Minimum Inhibitory Concentration, EKO-35 araC::macAB [6]: 250 µg/mL
Fold change of MICs [7]: 2 fold
Minimum Inhibitory Concentration, EKO-35 araC::mdtBC [7]: 1000 µg/mL
Fold change of MICs [8]: 2 fold
Minimum Inhibitory Concentration, EKO-35 araC::mexCD [8]: 1000 µg/mL
efflux pump-mediated resistance vs EKO-35-Pore ([9]; AcrB with the pore): increased resistance
Fold changes of MICs [9]: 4 fold
Minimum inhibitory concentration, EKO-35 araC::acrB Pore [9]: 1000 µg/mL
Fold changes of MICs [10]: 1 fold
Minimum inhibitory concentration [10]: 250 µg/mL
Fold changes of MICs [11]: 4 fold
Minimum inhibitory concentration, EKO-35 araC::acrD Pore [11]: 1000 µg/mL
efflux pump-mediated resistance vs EKO-35-Pore ([12]; AcrEF with the pore): increased resistance
Fold changes of MICs ([12]; EKO-35 araC::acrEF Pore compared to EKO-35-Pore): 4 fold
Minimum inhibitory concentration, EKO-35 araC::acrEF Pore [12]: 1000 µg/mL
Fold changes of MICs [13]: 2 fold
Minimum inhibitory concentration [13]: 500 µg/mL
Fold changes of MICs [14]: 1 fold
Minimum inhibitory concentration [14]: 250 µg/mL
Fold changes of MICs [15]: 1 fold
Minimum inhibitory concentration [15]: 250 µg/mL
Fold changes of MICs [16]: 4 fold
Minimum inhibitory concentration [16]: 1000 µg/mL
efflux pump-mediated resistance vs EKO-35-Pore ([16]; MdtBC with the pore): associated MdtBC with resistance
Fold changes of MICs [17]: 4 fold
efflux pump-mediated resistance vs EKO-35-Pore ([17]; MdtEF with the pore): increased resistance
Minimum inhibitory concentration, EKO-35 araC::mdtEF Pore [17]: 1000 µg/mL
Fold changes of MICs [18]: 4 fold
Minimum inhibitory concentration [18]: 1000 µg/mL
efflux pump-mediated resistance vs EKO-35-Pore ([18]; MexCD, OM compromised): increased resistance
